# What was measured:
# actinic keratosis = assay: Topical treatment of actinic keratosis lesions in patients; type: in vivo, human; conditions: for actinic keratosis: 2.5% by weight emulsion, twice a day, two lesions in the same patient (scalp)
# Source text: An emulsion containing 2.5% by weight of 2,5-dihydroxybenzenesulfonic acid was used to treat two lesions of actinic keratosis in the same patient, as shown in FIGS. 4 and 5. […] Calcium salt of 2,5-dihydroxybenzenesulfonic acid was used.
# (§1) In this study, 2,5-dihydroxybenzenesulfonic acid, potassium salt, formulated as 5% by weight in the form of cream has been used, since this type of formulation is a habitual procedure for topical treatments of the skin. Distilled water has been used as the aqueous phase of the cream. The oil phase thereof may comprise cetyl alcohol, stearyl alcohol or vaseline. Span (sorbitan monooleate) is an effective emulsifier to make the cream.
# Active principle: 2,5-dihydroxybenzenesulfonic acid, potassium salt, 5% by weight.
# Excipients: cetyl alcohol (2.5%), stearyl alcohol (2.5%), liquid vaseline (30%), white soft vaseline (20%), sorbitan monooleate (5%) and distilled water (q.s. to 100 g).
# seborrheic keratosis = assay: Topical treatment of seborrheic keratosis; type: in vivo, human
# Source text: (§2) Topical treatment with the above described cream (twice a day for 11 days) of human skin (basal conditions shown in FIG. 2A) results in a reduction of seborrheic keratosis (big circle) as well as of viral warts (small circle), as shown in FIG. 2B.
# Another example of the effect of 2,5-dihydroxybenzenesulfonate on seborrheic keratosis is shown in FIG. 3, wherein the seborrheic keratosis is reduced due to the topical treatment on the affected area for 4 weeks, twice a day, with an emulsion containing the 2,5-dihydroxybenzenesulfonic acid, 2.5% by weight.
# [1] = tested on: cell line of preadipocytes 3T3L1; assay: Adipogenesis assay in preadipocytes, Oil Red O staining; type: cell-based
# Protocol: The preadipocytes were seeded in a 6 well plate where they grew up to the confluence In a standard culture medium [Dulbecco's Essential Medium (DEM)], supplemented with 1.5 g/L of sodium bicarbonate, non essential aminoacids and 10% bovine fetal serum. […] The culture medium was renewed every two days. After seven days, the differentiation to adipocytes was initiated in the six wells by the addition of dexametasone ([…]), 3-isobutyl-1-methylxanthine (0.5 mM) and insuline (160 nM) during two days, followed by the substitution of the culture medium by another culture medium containing insuline (160 nM) during five days. […] The culture medium was renewed every two days.
# 12 days later, the adipogenesis was determined by staining with Oil Red O to check the cytoplasmic accumulation of triglycerides. The cells were washed with phosphate buffer (PBS), fixed with 4% paraformaldehyde and stained during thirty minutes with Oil Red O. Isopropanol was used to remove the dye from the cells to quantify the accumulation of lipids; the absorbance thereof was measured at 510 nm in a spectrophotometer.
# human photoaged skin = assay: Topical treatment of human photoaged skin with cream; type: in vivo; conditions: 5% cream, potassium salt, twice a day for 3 months
# Source text: as §1
# Active principle: 2,5-dihydroxybenzenesulfonic acid, potassium salt, 5% by weight. Excipients: cetyl alcohol (2.5%), stearyl alcohol (2.5%), liquid vaseline (30%), white soft vaseline (20%), sorbitan monooleate (5%) and distilled water (q.s. to 100 g).
# Lightening of skin hyperpigmentation after the application of 2,5-dihydroxybenzenesulfonic acid may justify the use thereof to treat melanic dyschromia with hyperpigmentation as occurs, among other pathologies, in the Mongolian spot, the nevus of Ota, the nevus of Ito, the nevus of Becker, ephelides (freckles), the lentigo malign melanoma, the café-au-lait macules or the melasma (chloasma).
# viral warts = assay: Topical treatment of viral warts; type: in vivo, human; conditions: 5% cream, twice a day for 11 days
# Source text: as §2
# hair growth = assay: Effect of topical cream on hair growth; type: in vivo, human; conditions: 5% cream, potassium salt, twice a day for 3 months
# Source text: 2,5-dihydroxybenzenesulfonic acid, potassium salt, formulated in the form of cream was used and its composition was the same as that used in example 1.
# mouse glioma C6 cells = assay: Proliferation of glioma C6 cells, crystal violet; type: cell-based; conditions: 500 μM, 48 hours, potassium salts, p<0.001
# Protocol: The cell line used was that of mouse glioma C6 cells. Once attached, the cells were treated o not treated (controls) with (5A-2HBS) (500 μM) or (2A-5HBS) (500 μM) and they were allowed to proliferate during 48 hours. After that, the proliferation of glioma cells was evaluated by staining the fixed cells with crystal violet. The number of cells is proportional to the amount of retained dye, which was spectrophotometrically determined by measuring absorbance at 595 nm after removing the dye from the cells.
# [2] = tested on: rabbit subcutaneous fat preadipocytes; assay: Proliferation of subcutaneous fat preadipocytes, crystal violet; type: cell-based; conditions: 72 hours
# Protocol: The primary cultures of rabbit preadipocytes were obtained from the inguinal fat of New Zealand rabbits. Once the fat is removed, it is processed by mechanical disaggregation and enzymatic digestion with 0.075% type I collagenase (Gibco BRL, Paisley, Scotland, RU) for 30 minutes at 37°. The mature adipocytes are separated, removed by centrifugation (300×g, 5 min) and the cell sediment is selected. Then, the mononuclear cells with low cell density are isolated by density gradient centrifugation with Ficoll-Paque (Amersham Biosciences, Uppsala, Sweden). Once the low density mononuclear cells are obtained, they are seeded in a 75 cm^2 culture flask and cultured in an incubator at 37° C. with air containing 5% CO2, in an Eagle medium modified by Dulbecco (DMEM) (Gibco) with 10% of bovine fetal serum (Gibco) and 0.1% of antibiotic-antimicotic (Gibco). The culture medium is replaced 24 hours later to remove the cells present in the supernatant, and to select the cells adhered to the culture flask. […]
# The rabbit preadipocytes proliferation experiments were carried out in 24-well plates. […] The proliferation of preadipocytes was evaluated 72 hours later, and at that moment the cells were fixed with 1% glutaraldehyde. The cellular proliferation was evaluated using the crystal violet method, by measuring the absorbance at a wave length of 595 nm.
# [3] = molecular target: T1, fibroblast growth factor-1 (FGF-1) (Homo sapiens, UniProt P05230); assay: Structural interaction with FGF-1 from diffraction of complex crystals; type: binding; conditions: electron density contoured at 1σ; acetoxyl groups kept when bound
# T1 construct: host or cells: added to Balb/c 3T3 fibroblast cultures
# T1 sequence (P05230 whole entry, species assumed): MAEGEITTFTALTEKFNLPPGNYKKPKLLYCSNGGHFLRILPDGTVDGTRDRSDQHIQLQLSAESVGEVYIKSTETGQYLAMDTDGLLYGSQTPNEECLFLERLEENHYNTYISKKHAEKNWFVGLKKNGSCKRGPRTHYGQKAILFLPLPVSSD
# Protocol: As of the diffraction from complex crystals of FGF-1: 2-acetoxy-5-hydroxybenzenesulfonic acid, FGF-1: 5-acetoxy-2-hydroxybenzenesulfonic acid and FGF-1: 2,5-diacetoxybenzenesulfonic acid, the complex structures were calculated and represented. In FIGS. 20, 21 and 22, representing the surface of the protein cloured according to its electrostatic potential (light grey: negative charge, dark grey: positive charge, white: areas with no charge), the interaction form of the 2-acetoxy-5-hydroxybenzenesulfonic acid, 5-acetoxy-2-hydroxybenzenesulfonic acid and 2,5-diacetoxybenzenesulfonic acid, respectively, with the FGF-1 may be observed.
# [4] = molecular target: T1, fibroblast growth factor-1 (FGF-1); assay: Inhibition of fibroblast mitogenesis induced by FGF-1 in quiescent Balb/c 3T3 cultures; type: cell-based; conditions: quiescent cultures of Balb/c 3T3 fibroblasts; potassium salts, 2-acetoxy-5-hydroxybenzenesulfonate as calcium salt
# Protocol: The evaluated compounds were used in the form of potassium salt, except in the first case in which calcium salt was used. The experiments were carried out as described in Fernández-Tornero C et al. J Biol Chem, 2003.
compound,measurement,setting,value
"O=S(=O)(O)c1cc(O)ccc1O [2,5-dihydroxybenzenesulfonic acid]",actinic keratosis lesion in the ear,"actinic keratosis; 5% cream, topical, after 12 days",reduction of the actinic keratosis
same,actinic keratosis lesion in the ear,"actinic keratosis; 5% cream, topical, after 15 days",the lesion was cleared
same,actinic keratosis lesion in the nose,"actinic keratosis; 5% cream, topical, after 30 days",reduction of the actinic keratosis
same,seborrheic keratosis,"seborrheic keratosis; 2.5% by weight emulsion, twice a day for 4 weeks, facial",reduced
same,seborrheic keratosis,"seborrheic keratosis; 5% cream, twice a day for 11 days",reduction in the seborrheic keratosis
same,number of preadipocytes differentiated in adipocytes,"[1]; 3T3-L1 cells, 25 μM, during 12 hours (so in the source)",very significant reduction
same,actinic lentigo areas of photoaged skin,human photoaged skin,disappearance of actinic lentigo areas
same,wrinkles of photoaged skin,human photoaged skin,reduction of the wrinkles
same,viral warts,viral warts,reduction
same,hair in the area of application,hair growth,disappearance of hair in the area of application
"CC(=O)Oc1ccc(O)cc1S(=O)(=O)O [2A-5HBS, 2-acetoxy-5-hydroxybenzenesulfonic acid]",proliferation of glioma cells (absorbance at 595 nm),mouse glioma C6 cells,caused the inhibition of the proliferation
same,concentration as of which a significant effect on preadipocyte proliferation is obtained,[2],100 µM
same,proliferation of preadipocytes (absorbance at 595 nm),"[2]; DHBS 10 to 100 μM, 2A-5HBS 10 to 500 μM, concentration dependent",significantly inhibited
same,location of the compound bound to FGF-1 in the complex crystal,[3],"located at a site very close to the site that, as described, is occupied by the 2,5-dihydroxybenzenesulfonic acid"
same,FGF-1 induced mitogenesis,[4],Inhibition of FGF-1 mitogenesis was observed
"CC(=O)Oc1ccc(O)c(S(=O)(=O)[O-])c1.[K+] [5A-2HBS, potassium 5-acetoxy-2-hydroxybenzenesulfonate]",proliferation of glioma cells (absorbance at 595 nm),mouse glioma C6 cells,caused the inhibition of the proliferation
same,location of the compound bound to FGF-1 in the complex crystal,[3],"located at a site very close to the site that, as described, is occupied by the 2,5-dihydroxybenzenesulfonic acid"
same,FGF-1 induced mitogenesis,[4],Inhibition of FGF-1 mitogenesis was observed
"CC(=O)Oc1ccc(OC(C)=O)c(S(=O)(=O)[O-])c1.[K+] [DABS, potassium 2,5-diacetoxybenzene sulfonate]",location of the compound bound to FGF-1 in the complex crystal,[3],"located at a site very close to the site that, as described, is occupied by the 2,5-dihydroxybenzenesulfonic acid"
same,FGF-1 induced mitogenesis,[4],Inhibition of FGF-1 mitogenesis was observed
"O=C(O)c1cc(O)ccc1O [gentisic acid, 2,5-dihydroxybenzoic acid]",accumulation of triglycerides (percentage of absorbance at 510 nm) versus untreated cells,"[1]; 50 μM, p<0.05",significantly smaller
same,differentiation of the preadipocytes and adipogenesis,"[1]; 3T3-L1 preadipocytes, 50 μM, two weeks",inhibits the differentiation of the preadipocytes and the adipogenesis
"O=S(=O)([O-])c1cc(O)ccc1O.[K+] [potassium 2,5-dihydroxybenzenesulfonate]",FGF-1 induced mitogenesis,[4],Inhibition of the mitogenesis
"calcium 2,5-dihydroxybenzenesulfonate",actinic keratosis,actinic keratosis; after 4 weeks,the effect was even more evident
same,actinic keratosis,actinic keratosis; after 15 days,clearly reduced
